These results are taken from patent publication US11000505B2 (priority 2010, dated 2021).

The subject of series [1] is pial artery. To be noted: pig, in vivo.
The test system of series [2] is pial artery. The settings on record: pig, in vivo. This is another data set of the same source.
In series [3] the test system is pial artery. Format: in vivo, piglets. To be noted: in vivo.
The subject of series [4] is pial artery. Format: in vivo, newborn pigs. The settings on record: pig, in vivo.
The target in series [5] is T1, cloned rat kappa receptor (Rattus norvegicus, UniProt P34975).
T1 construct: expressed in transfected cells; host or cells: HEK cells (NIMH PDSP)
In words: biochemical. The series is classed as binding.

In a further series the test system is cAMP. In words: cAMP in CSF by ELISA (Example 7). Format: in vivo, newborn pigs. The text has this:
Newborn pigs (aged up to 6 days, 1.1-2.0 kg) of both genders were used for this study. Protocols were approved by the Institutional Animal Care and Use Committee of the University of Pennsylvania (Philadelphia). The newborn piglet model was used because its brain is gyrencepahalic and contains more white matter than grey matter, which is similar to that of humans. Furthermore, the head is large enough for the insertion of a cranial window and vascular visualization. Animals were induced with isoflurane (1-2 minimum alveolar concentration) and maintained with α-chloralose (80-100 mg/kg supplemented with 5 mg/kg·h, IV). Both femoral arteries were catheterized to monitor blood pressure and blood gas to maintain a constant carbon dioxide and pH. A catheter was inserted into the right femoral vein for medication administration. Animals were ventilated with room air after tracheal intubation. A heating pad was used to maintain the rectal temperature of animals at 37-39° C. A closed cranial window on the top of the head of the piglet was placed for direct pial artery visualization and diameter measurement. The closed cranial window consisted of three parts: a stainless steel ring, a circular glass cover slip, and three ports consisting of 17-gauge hypodermic needles attached to three precut holes in the stainless steel ring. CSF was collected through a cranial window port for cAMP measurement in some animals. […] Vascular diameter was measured from a video monitor that was connected to the camera with a video microscaler (VPA 550; For-A-Corp., Los Angeles, Calif.) by the investigator who administered the medication.
The cerebral cortical periarachnoid CSF samples were collected before and 10 min afterward administration of herkinorin and NTP to measure the cAMP level. […] Commercially available ELISA kits (Assay Designs, Ann Arbor, Mich.) were used to quantify cAMP concentrations.

The next series has as its target T2, cloned human mu receptor (Homo sapiens, UniProt P35372).
T2 construct: expressed in transfected cells; host or cells: HEK cells (NIMH PDSP)
The series is described as follows: In-vitro affinity determination, [3H]DAMGO competition. Format: binding.

Series [6] deals with mu, kappa and delta receptors. The settings on record: competition binding assays; cited from earlier work.

“And” between values parts separate entries of the source, which are not always exact repeats. Identical values can stand only once.

T2 sequence (P35372 whole entry): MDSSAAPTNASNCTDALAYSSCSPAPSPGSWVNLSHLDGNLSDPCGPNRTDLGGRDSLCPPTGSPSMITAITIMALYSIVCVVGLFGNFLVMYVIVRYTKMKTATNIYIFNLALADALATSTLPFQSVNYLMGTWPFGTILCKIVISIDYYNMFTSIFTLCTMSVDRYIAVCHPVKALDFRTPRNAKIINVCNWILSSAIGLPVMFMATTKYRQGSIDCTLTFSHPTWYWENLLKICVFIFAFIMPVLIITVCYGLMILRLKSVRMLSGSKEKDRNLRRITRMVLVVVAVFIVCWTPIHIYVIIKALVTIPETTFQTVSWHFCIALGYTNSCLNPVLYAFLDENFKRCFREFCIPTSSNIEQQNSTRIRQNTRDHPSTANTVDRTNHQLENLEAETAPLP
T1 sequence (P34975 whole entry): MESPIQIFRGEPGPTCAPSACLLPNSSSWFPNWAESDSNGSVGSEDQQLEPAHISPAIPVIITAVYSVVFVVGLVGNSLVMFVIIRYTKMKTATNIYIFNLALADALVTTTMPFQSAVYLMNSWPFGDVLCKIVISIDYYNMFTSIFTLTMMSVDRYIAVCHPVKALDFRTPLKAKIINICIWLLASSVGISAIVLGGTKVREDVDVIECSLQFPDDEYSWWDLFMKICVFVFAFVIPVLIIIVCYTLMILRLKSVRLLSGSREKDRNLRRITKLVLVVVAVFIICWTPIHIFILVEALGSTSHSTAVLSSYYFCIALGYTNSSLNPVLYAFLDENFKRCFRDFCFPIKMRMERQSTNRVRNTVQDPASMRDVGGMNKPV

As to `CC1(C)Oc2ccc(C#N)cc2C(N2CCCC2=O)C1O` (stereo not drawn) [cromakalim, reference compound], the “dilation response in presence of glibenclamide” value with pial artery [1] is given as “blocked the dilation in response to cromakalim”.
For `O=c1[nH]c2cc(C(F)(F)F)ccc2n1-c1cc(C(F)(F)F)ccc1O` [NS1619, reference compound], the “dilation response in presence of iberiotoxin” value with pial artery [1] is “blocked the dilation effects of NS1619”.
In the case of “methionine enkephalin [reference compound]”, in the series with pial artery [1], the “dilation response in presence of naloxone” value is listed as “blocked the dilation effects” and the “dilation response in presence of norbinaltorphimine” value was “blocked the dilation effects”.
Turning to `CC(C)NCC(O)c1ccc(O)c(O)c1` (stereo not drawn) [isoproterenol, reference compound], in the series on pial artery [2], the “dilation in presence of NTP” value is recorded as “unchanged by either NTP or β-FNA” and the “dilation in presence of β-FNA” value is “unchanged by either NTP or β-FNA”. Further, the “pial artery response to the agent before and after hypoxia/ischemia” value with pial artery [3] is reported as “unchanged in all groups”. In the series on pial artery [1], the “dilation response in presence of naloxone” value was “unaffected” and the “dilation response in presence of norbinaltorphimine” value was “unaffected”. Further, in the series on pial artery [4], the “pial artery response to the agent before and after HI” value is “no change was observed”.
As a reminder, the Ki is the dissociation constant of the complex between target and ligand, obtained from inhibition or displacement. Lower therefore signals tighter binding. Consider `COC(=O)[C@@H]1C[C@H](OC(=O)c2ccccc2)C(=O)[C@H]2[C@@]1(C)CC[C@H]1C(=O)O[C@H](c3ccoc3)C[C@]21C` [herkinorin], for which the Ki in series [5] turned out to be 0.184 µM. Besides, the “cAMP levels in the CSF” value with cAMP (10 min after administration) is given as “significantly increased cAMP levels in the CSF”. In addition, in the series with cAMP (pig, in vivo), the “elevated cAMP levels with NTP” value is on record as “blocked by NTP” and the “elevated cAMP levels with β-FNA” value is given as “not affected after β-FNA administration”. Also, in the series with pial artery [2], the “concentration required to effectively dilate pial arteries” value is recorded as 0.1 nM, the “dilation in presence of NTP” value was “totally abolished by norbinaltorphimine”, the “dilation in presence of Rp-cAMPS” value is reported as “blunted herkinorin-mediated pial artery dilation” and the “dilation in presence of β-FNA” value is given as “not affected by β-FNA”. Besides, in the series with pial artery [2], the “pial artery diameter dilation” value was 10.6% and 17.8%; the systemic blood pressure result was “without significant systemic blood pressure variation”. The compound further registered a Ki on cloned human mu receptor (HEK cells over-expressing receptor) of 0.045 µM. At cloned human mu receptor (mu stronger than kappa), the “binding affinity to mu receptor relative to kappa receptor” value is given as “approximately 4 fold”. In series [6], the “selectivity for mu over delta receptors” value is on record as “approximately 98 fold” and the “selectivity for mu over kappa receptors” value is “approximately 8 fold”.
